{
  "source": "patent US12473583B2",
  "about": "“Use of guar gum, fluorescence-enhanced gold nanocluster, method for detecting alpha-glucosidase, and method for screening alpha-glucosidase inhibitor” (priority 2022, dated 2025)",
  "target": "α-glucosidase (α-Glu)",
  "assay": "Screening of α-Glu inhibitors by fluorescence detection with guar gum-gold nanocluster-Fe3+ mixed dispersion (AAG substrate)",
  "type": "biochemical",
  "details": "read from calibration curve of inhibitory efficiency vs concentration; third incubation 37° C. for 40 min, PBS pH=7.0, AAG substrate; fluorescence at 610 nm; read-out: IC50 (concentration of the inhibitor required to inhibit 50% α-Glu activity)",
  "from_the_text": "The present disclosure further provides a method for screening an α-Glu inhibitor, including the following steps: • providing a fluorescence-enhanced gold nanocluster-Fe^3+ mixed dispersion, where a fluorescence-enhanced gold nanocluster in the fluorescence-enhanced gold nanocluster-Fe^3+ mixed dispersion is the fluorescence-enhanced gold nanocluster in the above technical solution; • mixing an α-Glu inhibitor solution to be tested, an α-Glu solution, an AAG solution, and a PBS, and conducting third incubation to obtain a third incubation solution; • mixing the third incubation solution with the fluorescence-enhanced gold nanocluster-Fe^3+ mixed dispersion, and conducting fourth incubation to obtain a fourth incubation solution; and • subjecting the fourth incubation solution to fluorescence detection, and plotting a calibration curve of the α-Glu inhibitor to be tested according to a fluorescence emission intensity obtained by the fluorescence detection; according to the calibration curve of the α-Glu inhibitor to be tested, obtaining an IC50 of the α-Glu inhibitor to be tested to screen the α-Glu inhibitor. […]\nIn the present disclosure, the third incubation solution is mixed with the fluorescence-enhanced gold nanocluster-Fe^3+ mixed dispersion, and the fourth incubation is conducted to obtain the fourth incubation solution. […]",
  "data": [
    {"compound": "COc1ccc([C@@H]2CC(=O)c3c(O)cc(O[C@@H]4O[C@H](CO[C@@H]5O[C@@H](C)[C@H](O)[C@@H](O)[C@H]5O)[C@@H](O)[C@H](O)[C@H]4O)cc3O2)cc1O", "note": "[hesperidin]", "values": [
      {"measurement": "IC50", "value": 101, "unit": "µM"}
    ]}
  ]
}
